Laboratory results taken from patent US8206704B2, “Use of GCC ligands” (priority 2003, dated 2012).
“Also recorded” adds a separate entry of the source. Read-outs that look alike come from different tables or passages of the source.

Columns and labels:
[1] = tested on: human T84 colon cancer cells; experiment: Perforated whole-cell patch-clamp current measurements; type: cell-based
Experimental: The perforated mode of the whole-cell patch-clamp recording was applied to human T84 colon cancer cells. Membrane potential was controlled through the electrical access obtained by membrane perforation induced by amphotericin B (9, 10). The pipette solution supplemented by amphotericin B ([…]) contained: 140 mM KCl, 1 mM MgCl2, 5 mM EGTA, and 20 mM Hepes-KOH (pH 7.3). The bath solution contained (in mM): 136.5 mM NaCl, 5.4 mM KCl, 1.8 mM CaCl2, 0.5 mM MgCl2, 5.5 mM glucose, and 5 mM Hepes-NaOH (pH 7.4). Voltage-clamp recordings were performed with an Axopatch 1-C patch-clamp amplifier (Axon Instruments, Foster City, Calif.) at 31±1° C. using an HCC-100 temperature controller (Dagan Instruments, Minneapolis; ref. 19).

[2] = tested on: T84 cells; experiment: DNA synthesis ([methyl-3H]thymidine incorporation), tumor cell proliferation; type: cell-based, human
Experimental: (§1) T84 (passages 50-70) and SW480 (passage 100-120) human colon carcinoma cells, obtained from the American Type Culture Collection, were maintained at 37° C. (5% CO2) in DMEM/F12 containing 2.5 mM L-glutamine, 100 units/ml penicillin, 100 μg/ml streptomycin, and 10% (vol/vol) FBS.
(§2) Exponentially growing cancer cells (˜60% confluent in 96-well plates) were synchronized by serum starvation in Eagle's minimal essential medium (EMEM) for 48 h, followed by proliferative induction with 10 mM L-glutamine (in EMEM) for 24 h. ST and other agents were added to cells 15 min before 0.2 μCi per well (1 Ci=37 GBq) of [methyl-3H]thymidine, which was added for 3 h, followed by quantification of [3H]thymidine incorporation into DNA (15).

[3] = tested on: rat colon; details: L-DLT 200 μM; cited from earlier work
[4] = tested on: T84 cells; experiment: 45Ca2+ transport (calcium influx); type: cell-based, human
Experimental: Exponentially growing T84 cells (40-80% confluent in 24-well plates) were incubated in media (S-MEM, Life Technologies, Rockville, Md.) containing low (300 μM) CaCl2 to maximize the signal-to-noise ratio for L-cis-diltiazem (L-DLT)-sensitive 45Ca2+ transport determinations. Cells were treated with ST, 8-br-cGMP, and/or L-DLT for the indicated times, followed by the addition of 1 μCi per well 45Ca2+ for the last 15 min. Incubations were terminated by washing four times in cold PBS buffer (145 mM NaCl/5 mM KCl/1 mM MgCl2/10 mM glucose/5 mM Hepes, pH 7.4) containing 0.1 mM EGTA, cells were solubilized with cold NaOH (0.1 M), and radioactivity was quantified in 100-μl aliquots.

[5] = biological target: ST receptors (Homo sapiens, UniProt P25092); details: about; cited from earlier work
[6] = Pharmacokinetics of ST in man by allometric scaling and dosage calculation
From the text: An alternative approach is to provide the patient with continual intravenous dosing of ST, thereby maintaining the cytostatic effect through adjuvant chemotherapy, while minimizing any adverse effects associated with ST. To achieve therapeutic efficacy, the steady state concentration (Css) should be ≧10 EC50.

[7] = tested on: [cGMP]i and intracellular cAMP in T84 cells; experiment: Cyclic nucleotide (cGMP, cAMP) quantification by ELISA or RIA; type: cell-based, human
Experimental: cGMP and cAMP were quantified in exponentially growing T84 cells (˜60% confluent in 96-well plates) employing ELISA (Amersham Pharmacia) or RIA. In experiments employing ELISA, media was aspirated, reactions were terminated by the addition of a lysis solution (200 μl per well) containing 0.5% dodecyltrimethylammonium bromide, and aliquots (100 μl) from each well were processed for cyclic nucleotide determinations. In experiments employing RIA, reactions were terminated with ice-cold 100% ethanol, and supernatants were separated from pellets by centrifugation and processed for cGMP determinations (8).

[8] = tested on: SW480 cells; experiment: DNA synthesis ([methyl-3H]thymidine incorporation), tumor cell proliferation; type: cell-based, human; details: SW480 cells that do not express GC-C, ST 1 μM
Experimental: as §1, §2

[9] = tested on: human T84 colon cancer cells; experiment: Perforated whole-cell patch-clamp current measurements; type: cell-based; details: Ca-free solution, n=5
[10] = ST as an anticancer agent in vitro; type: cell-based
[11] = tested on: human colorectal cancer cells; experiment: Actin cytoskeleton organization (confocal microscopy, cell spreading); type: cell-based
From the text: ST prevented human colorectal cancer cells from organizing their actin cytoskeleton. […] The latter is a functional readout of the ability of cells to organize actin. Human colorectal cancer cells treated with ST cannot spread their bodies out in vitro. An inability to organize their actin cytoskeletons will prevent these cells from being able to migrate through tissues to metastasize.

[12] = Pharmacokinetics of ST in rats; type: in vivo, rat; details: for half-life: rat, in vivo
[13] = tested on: matrix metalloproteinase 9 release from human colorectal cancer cells; experiment: Release of matrix metalloproteinase 9 (MMP 9 activity, western blot); type: cell-based; details: ST 1 micromolar
From the text: Preventing the secretion of this digestive enzyme will inhibit the ability of these tumor cells to invade the wall of the intestine. […] ST did this at a concentration of 1 micromolar.

[14] = tested on: GCC-bearing cells; experiment: Pre-clinical cell cycle analysis; type: cell-based; details: ST alone
[15] = tested on: human colorectal cancer cells; experiment: Association of cells with connective tissue proteins in vitro; type: cell-based; details: ST at 1 micromolar
From the text: Type IV collagen forms the connective tissue meshwork supporting the lamina propria and specifically serves to trap cells through specific interactions with beta integrins. Cancer cells evade this trap by diminishing their ability to bind to type IV collagen. […] Enhancing this interaction will prevent metastases by trapping cells in the laminapropria underlying epithelial cells in the intestine.

Chain of ST receptors (P25092 24-1073): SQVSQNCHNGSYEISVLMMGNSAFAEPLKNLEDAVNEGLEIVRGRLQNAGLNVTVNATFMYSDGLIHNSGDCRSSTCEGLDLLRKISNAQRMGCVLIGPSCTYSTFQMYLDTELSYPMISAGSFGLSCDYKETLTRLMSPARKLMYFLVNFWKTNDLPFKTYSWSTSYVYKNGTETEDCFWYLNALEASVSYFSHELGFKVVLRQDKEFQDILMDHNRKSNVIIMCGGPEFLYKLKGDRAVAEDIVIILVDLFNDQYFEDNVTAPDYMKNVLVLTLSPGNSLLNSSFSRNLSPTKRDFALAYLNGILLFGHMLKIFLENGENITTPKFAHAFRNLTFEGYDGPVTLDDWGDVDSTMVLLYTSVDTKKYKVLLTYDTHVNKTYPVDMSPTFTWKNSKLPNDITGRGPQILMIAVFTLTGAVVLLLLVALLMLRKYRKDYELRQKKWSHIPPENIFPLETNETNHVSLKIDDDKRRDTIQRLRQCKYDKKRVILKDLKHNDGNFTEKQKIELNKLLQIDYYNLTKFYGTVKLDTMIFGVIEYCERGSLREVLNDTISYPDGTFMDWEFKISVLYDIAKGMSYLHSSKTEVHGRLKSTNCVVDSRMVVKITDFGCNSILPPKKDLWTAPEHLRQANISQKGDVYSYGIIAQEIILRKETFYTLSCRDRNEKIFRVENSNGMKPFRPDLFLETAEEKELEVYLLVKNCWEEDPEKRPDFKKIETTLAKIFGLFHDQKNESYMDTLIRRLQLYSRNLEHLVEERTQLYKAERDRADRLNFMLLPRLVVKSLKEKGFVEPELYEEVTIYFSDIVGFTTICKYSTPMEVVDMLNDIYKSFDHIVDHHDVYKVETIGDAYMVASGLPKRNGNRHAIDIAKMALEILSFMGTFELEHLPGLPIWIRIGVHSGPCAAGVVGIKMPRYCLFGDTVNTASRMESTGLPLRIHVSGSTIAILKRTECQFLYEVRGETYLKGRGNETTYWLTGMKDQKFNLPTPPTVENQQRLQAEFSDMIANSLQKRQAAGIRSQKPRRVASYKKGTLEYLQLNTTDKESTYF

COc1ccc([C@H]2Sc3ccccc3N(CCN(C)C)C(=O)[C@H]2OC(C)=O)cc1 (relative stereo) [L-DLT, L-cis-diltiazem]
Effect of L-DLT on ST-induced current and reversal potential shift ([1]; 200 μM L-DLT): reversibly blocked; also recorded: reversed | Reversal potential Em restored by L-DLT in the presence of ST ([1]; n=4): −39.5±5.2 mV | Effect of L-DLT on inhibition of proliferation by 8-br-cGMP ([2]; 200 μM L-DLT, 8-br-cGMP 5 mM): blocked | Effect of agent on inhibition of proliferation induced by ST ([2]; with ST, 1 μM KT5823, 50 μM RP8pCPT-cGMP, 0.5 μM KT5720, 50 μM RP-cAMPs, 10 μM milrinone, 200 μM L-DLT, 20 μM BAPTA, 50 μM DTR, 1 μM PHE, 100 nM CTX): prevented; also recorded: blocked | Effect on ST-induced 45Ca2+ influx in the rat colon [3]: abolished | Effect of L-DLT on ST- and 8-br-cGMP-induced 45Ca2+ influx ([4]; pretreatment 30 min, 250 μM L-DLT): inhibited; also recorded: abolished

Guanylin: 15 amino acid peptide with about 50% sequence homology to ST, identified in mammalian intestine (PNTCEICAYAACTGC; guanylin)
Guanylate cyclase activation level, fold less than native ST [5]: 10- to 100 fold

CC(C)C[C@@H]1NC(=O)[C@H](CCC(=O)O)NC(=O)[C@@H]2CSSC[C@@H]3NC(=O)[C@H](C)NC(=O)[C@@H]4CCCN4C(=O)[C@H](CC(N)=O)NC(=O)[C@H](CSSC[C@H](NC(=O)[C@H](Cc4ccc(O)cc4)NC(=O)[C@H](Cc4ccccc4)NC(=O)[C@@H](NC(=O)[C@@H](N)CC(N)=O)[C@@H](C)O)C(=O)N2)NC(=O)[C@H](CSSC[C@@H](C(=O)N[C@@H](Cc2ccc(O)cc2)C(=O)O)NC(=O)CNC(=O)[C@H](C)NC3=O)NC1=O [ST]
Induction of Ca2+-dependent K+ current (KCa), charybdotoxin-sensitive [1]: induced | Reversal potential derived from the induced current-voltage relationship [1]: ~−70 mV | Induction of L-DLT-sensitive membrane current ([1]; 500 nM ST, 2.5 mM 8-br-cGMP): induced membrane current; also recorded: induces an L-DLT-sensitive current | Induced current in the presence of [Ca2+]ext ([1]; control, 1.8 mM CaCl2, n=5): 0.23±0.07 nA | Reversal potential Em in the presence of ST ([1]; n=6): −66.3±3.6 mV | Shift of the reversal potential ΔEm ([1]; ramp pulses, holding potential −40 mV, mean±SEM): −27.5±2.6 mV | Clearance Cl ([6]; 70 kg man, (0.693)(Vd)/(t1/2)): 0.222 L/h/kg | Volume of distribution Vd of ST ([6]; 70 kg patient, ECF volume): 12 L | t1/2 (α) in man ([6]; calculated): 24 min | Blood half-life for ST (man), α ([6]; man, α phase, allometric scaling theory): 24 min | Blood half-life for ST (man), β ([6]; man, β phase, allometric scaling theory): 667.2 min | t1/2 (α+β) ([6]; used for infusion rate calculation): 31.8 min | [cAMP]i accumulation [7]: did not induce [cAMP]i accumulation | [cGMP]i accumulation [7]: induced the accumulation of [cGMP]i; also recorded: independent of [Ca2+]ext | Inhibition of DNA synthesis / cell proliferation by ST ([2]; T84 cells expressing GC-C, ST 1 μM): inhibits DNA synthesis; also recorded: inhibits cell proliferation | Inhibition of DNA synthesis by ST [8]: not in tumor cells deficient in GC-C; also recorded: not in those cells that do not express GC-C | Induced current after removal of [Ca2+]ext [9]: 0.02±0.01 nA | IC50 [10]: 0.014 µM | Organization of actin cytoskeleton ([11]; ST 1 micromolar, confocal microscopy): prevented | Cell spreading ([11]; in vitro): cannot spread | Volume of distribution, Vd ([12]; in rats, an ECF agent): 49 mls in rats (An ECF agent) | Clearance ([12]; in rats, primarily renal): 14.9 hr^−1 in rats (Primarily renal) | half-life ([12]; α phase, read-out: Blood half-life for ST (rat), α): 6 min | half-life ([12]; β phase, read-out: Blood half-life for ST (rat), β (converted)): 161 min | Release of matrix metalloproteinase 9 [13]: inhibited the release | Effect on cell cycle [14]: prolongation of the cell cycle; also recorded: increases equally for all four phases of the cell cycle | Influx of 45Ca2+ into colon cancer cells ([4]; ST 1 μM, 20 min, 8-br-cGMP 5 mM, 40 min): induced influx | Increase of association of cells with laminin or fibronectin [15]: not with laminin or fibronectin | Increase of association of cells with type IV collagen [15]: 2 fold
